Where a name gives a salt, the structure may show the parent alone.
How the values were obtained:
HCT116 [1] = assay: efficacy (fitted maximal change in viability relative to DMSO control); higher = less cytotoxic (negative = loss of viability); settings: 48 h
HCT116 [2] = assay: AC50 cell viability (CellTiter-Glo); higher = less potent; settings: 48 h
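For AC50 cell viability (CellTiter-Glo) in this document: HCT116 colorectal carcinoma cells screened at five concentrations per compound, luminescent viability scaled between DMSO wells and empty wells on each plate, curves fitted per compound.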
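For efficacy (fitted maximal change in viability relative to DMSO control) in this document: Luminescence-based viability readout, five doses per compound, normalized against on-plate DMSO and empty-well controls, followed by dose-response curve fitting for every drug.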

SMILES	efficacy (HCT116 [1])	AC50 cell viability (HCT116 [2])
CCCCNc1ncc2c(-c3ccc(CN4CCN(C)CC4)cc3)cn(C3CCC(O)CC3)c2n1 (configuration not stated) [UNC-2025]	-74.3%	1.66 µM
CC(C)Nc1cc(-c2c[nH]c(C(=O)N[C@H](CO)c3cccc(Cl)c3)c2)c(Cl)cn1 [Ulixertinib]	-114%	1.86 µM
CC(C)OC1=C(F)C=C(C=C1)C2=N[N]([C@@H](C)C/3=C(C4=CC(=CC=C4)F)/C(=O)C5=CC(=CC=C5O3)F)C6=C2C(=NC=N6)N [Umbralisib]	-35.3%	14.8 µM
CC[C@]1(O)C[C@H]2CN(CCC3=C([NH]C4=C3C=CC=C4)[C@@](C2)(C(=O)OC)C5=C(OC)C=C6N(C)[C@H]7[C@](O)([C@H](OC(C)=O)[C@]8(CC)\C=C/CN9CC[C@]7([C@H]89)C6=C5)C(=O)OC)C1 [VINBLASTINE SULFATE]	-53.2%	0.372 µM
C/C(=N\Nc1nnc2c(n1)[nH]c1c(C)cccc12)c1ccccn1 [VLX-600]	-87.1%	0.742 µM
C=CC(=O)N1CC/C(=C\c2ccc(F)c([N+](=O)[O-])c2)C(=O)/C(=C/c2ccc(F)c([N+](=O)[O-])c2)C1 [VLX-1570]	-81.4%	0.295 µM
CC(C)(O)CNc1ncc(-c2ccnc(Nc3ccncc3)n2)c(CC2CC2)n1 [VPS34 Inhibitor 1 (Compound 19, PIK-III analogue)]	-109%	13.2 µM
CCCCC(=O)OCC(=O)[C@]1(O)Cc2c(O)c3c(c(O)c2[C@@H](O[C@H]2C[C@H](NC(=O)C(F)(F)F)[C@H](O)[C@H](C)O2)C1)C(=O)c1c(OC)cccc1C3=O [Valrubicin]	-88.9%	1.86 µM
C/C=C/C[C@@H](C)C(=O)[C@H]1C(=O)N[C@@H](C(C)C)C(=O)N(C)CC(=O)N(C)[C@@H](CC(C)C)C(=O)N[C@@H](C(C)C)C(=O)N(C)[C@@H](CC(C)C)C(=O)N[C@@H](C)C(=O)N[C@H](C)C(=O)N(C)[C@@H](CC(C)C)C(=O)N(C)[C@@H](CC(C)C)C(=O)N(C)[C@@H](C(C)C)C(=O)N1C [Valspodar]	-53.6%	8.11 µM
COc1cc2c(Nc3ccc(Br)cc3F)ncnc2cc1OCC1CCN(C)CC1 [Vandetanib]	-108%	14.8 µM
Fc1ccc(C(OCCN2CCN(CCCc3ccccc3)CC2)c2ccc(F)cc2)cc1 [Vanoxeamine]	-96.8%	11.8 µM
C[C@@H]\1COC(=N1)\NC2=CC3=C(C=C2)N=CN=C3NC4=CC(=C(OCC5=NC=CS5)C=C4)Cl [Varlitinib tosylate]	-87.5%	16.6 µM
O=C(/C=C\n1cnc(-c2cc(C(F)(F)F)cc(C(F)(F)F)c2)n1)NNc1ccccn1 [Verdinexor]	-83.9%	0.59 µM
COC1=CC(=CC=C1)C2=CC=C(NC(=O)/C3=C(/CCC3)C(O)=O)C(=C2)F [Vidofludimus]	-50.2%	5.25 µM
CC[C@]1(O)C[C@H]2CN(CCC3=C([NH]C4=C3C=CC=C4)[C@@](C2)(C(=O)OC)C5=CC6=C(C=C5OC)N(C=O)[C@H]7[C@](O)([C@H](OC(C)=O)[C@]8(CC)\C=C/CN9CC[C@]67[C@H]89)C(=O)OC)C1 [Vincristine sulfate]	-60.7%	0.372 µM
CC[C@]12\C=C/CN3CC[C@]4([C@@H](N(C)C5=C4C=C(C(=C5)OC)[C@]6(CC7C[C@H](CN(C7)CC8=C6[NH]C9=C8C=CC=C9)C(C)(F)F)C(=O)OC)[C@](O)([C@@H]1OC(C)=O)C(=O)OC)[C@H]23 (some centres not stated) [Vinflunine (Tartrate)]	-67.8%	0.209 µM
CC[C@]12\C=C/CN3CC[C@]4([C@@H](N(C)C5=CC(=C(C=C45)[C@]6(C[C@H]7C[C@H](CN(C7)CC8=C6[NH]C9=C8C=CC=C9)C(C)(F)F)C(=O)OC)OC)[C@](O)([C@@H]1OC(C)=O)C(=O)OC)[C@H]23 [Vinflunine]	-64.1%	0.0986 µM
CCC1=C[C@@H]2CN(C1)Cc1c([nH]c3ccccc13)[C@@](C(=O)OC)(c1cc3c(cc1OC)N(C)[C@H]1[C@@](O)(C(=O)OC)[C@H](OC(C)=O)[C@]4(CC)C=CCN5CC[C@]31[C@@H]54)C2 [Vinorelbine (ditartrate)]	-60.3%	0.129 µM
CNC(=O)c1cccc(-c2ccc3c(N4CCOC[C@@H]4C)nc(N4CCOC[C@@H]4C)nc3n2)c1 [Vistusertib]	-31.3%	0.417 µM
CC[C@@H]1C(=O)N(C)c2cnc(Nc3ccc(C(=O)NC4CCC(N5CCN(CC6CC6)CC5)CC4)cc3OC)nc2N1C(C)C (some centres not stated) [Volasertib]	-89.8%	0.0661 µM
CN1CC[C@H]([C@@H]1CO)C2=C3OC(=C/C(=O)C3=C(O)C=C2O)\C4=C(Cl)C=C(C=C4)C(F)(F)F [Voruciclib]	-83.8%	7.42 µM
CN[C@H]1CN(C[C@@H]1OC)C2=NC3=C(C=C2)C(=O)C(=C\N3C4=NC=CS4)/C(O)=O [Vosaroxin]	-59.8%	1.91 µM
CCN1C(=O)\C(=C/C2=C(C)N=C(N)N=C12)C3=CC=N[NH]3 [Voxtalisib]	-60.4%	5.25 µM
c1cncc(CN2CCC(n3ncc4c(N5CCOCC5)nc(-c5ccc6[nH]ccc6c5)nc43)CC2)c1 [WAY-600]	-78.7%	5.9 µM
Cc1ccc(-c2nn(C(C)(C)CNC(=O)c3ccncc3)c3ncnc(N)c23)cc1 [WEHI-345]	-53%	6.61 µM
COc1cc2ncnc(Nc3ccc(O)c(Br)c3)c2cc1OC [WHI-P154]	-72.5%	14.8 µM

SMILES	efficacy (HCT116 [1])	AC50 cell viability (HCT116 [2])
CC(C)(C)NC(=O)c1cncn1C1CCN(c2ccc(-c3nnc(C(F)(F)F)o3)cn2)CC1 [WNK-463]	-49.1%	3.72 µM
CN1CCN(Cc2ccc(NC(=O)Nc3ccc(Oc4cc(NC(=O)C5CC5)ncn4)cc3)cc2C(F)(F)F)CC1 [WS-3]	-73.9%	0.0934 µM
O=C(CCCCCCC(=O)N/N=C/c1ccc(N(c2ccccc2)c2ccccc2)cc1)NO [WT-161]	-86.8%	2.09 µM
COC(=O)Nc1ccc(-c2nc(N3CCOCC3)c3cnn(C4CCN(C(=O)OC)CC4)c3n2)cc1 [WYE-354]	-56.3%	1.32 µM
COC(=O)Nc1ccc(-c2nc(N3CCOCC3)c3cnn(C4CCN(Cc5cccnc5)CC4)c3n2)cc1 [WYE-687]	-135%	13.2 µM
C=CC(=O)Nc1cccc(Oc2nc(Nc3ccc(N4CCN(C)CC4)cc3)ncc2Cl)c1 [WZ-3146]	-101%	4.17 µM
C=CC(=O)Nc1cccc(Oc2nc(Nc3ccc(N4CCN(C)CC4)cc3OC)ncc2Cl)c1 [WZ-4002]	-96.5%	11.8 µM
CCC(=O)Nc1cccc(Oc2nc(Nc3ccc(N4CCN(C)CC4)cc3OC)ncc2Cl)c1 [WZ-4003]	-65.7%	6.61 µM
C=CC(=O)Nc1cccc(Sc2nc(Nc3ccc(N4CCN(C)CC4)cc3)ncc2Cl)c1 [WZ-8040]	-108%	7.42 µM
C[C@H]([C@H]1C\C(=C(CO)/C(=O)O1)C)[C@H]2CC[C@H]3[C@@H]4C[C@H]5O[C@]56[C@@H](O)\C=C/C(=O)[C@]6(C)[C@H]4CC[C@]23C [Withaferin A]	-102%	1.66 µM
CCN1CCC(n2cc(CNc3cc(Cl)c4ncc(C#N)c(Nc5ccc(F)c(Cl)c5)c4c3)nn2)CC1 [Wyeth Cot Inhibitor 2]	-98.5%	20.9 µM
COc1cc2c(Nc3ccc(Cl)c(Cl)c3F)ncnc2cc1OC[C@@H]1C[C@@H]2CN(C)C[C@@H]2C1 [XL647]	-113%	11.8 µM
ClC1=CC=C2OC3=C(\N=C(NC3=O)\[C@@H]4CCCN4)C2=C1 [XL 413 hydrochloride]	-47.6%	14.8 µM
CC(C)c1cc(CNc2nc(Nc3cc(C4CC4)[nH]n3)cc(N3CCN(C)CC3)n2)on1 [XL-228]	-64%	0.295 µM
Cc1c(C(=O)N2CCOc3ccc(-c4ccc(N)nc4)cc3C2)ccc([S+](C)(=O)[O-])c1F [XL-388]	-65.5%	10.5 µM
COCCOC(=O)N1CCN([S+](=O)([O-])c2cc(F)c(Oc3ccc(Cl)cc3)c(F)c2)C(C(=O)NO)C1 (configuration not stated) [XL-784]	-92.6%	10.5 µM
CC[C@@H](C)Nc1cc(C(=O)NC2CC3CCC(C2)N3c2ccc(C(=O)C3CC3)cn2)c(C)cc1C(N)=O (some centres not stated) [XL-888]	-56.5%	0.118 µM
CC[C@@H](C)Nc1cc(C(=O)NC2CC3CC[C@@H](C2)N3c2ccc(C(=O)C3CC3)cn2)c(C)cc1C(N)=O (some centres not stated) [XL-888]	-59.7%	0.0833 µM
COc1cc(N2CCN(C)CC2)ccc1Nc1ncc2c(n1)N(C)c1ccccc1C(=O)N2 [XMD8-87]	-92.7%	18.6 µM
CCOc1cc(N2CCC(O)CC2)ccc1Nc1ncc2c(n1)N(C)c1ccccc1C(=O)N2C [XMD8-92]	-80.7%	8.33 µM
COc1cc(N2CCN(C)CC2)ccc1Nc1ncc2c(n1)N(C)c1ccccc1C(=O)N2C [XMD17-109 (ERK5-IN-1)]	-89.1%	9.34 µM
CCOc1cc(C(=O)N2CCC(N3CCN(C)CC3)CC2)ccc1Nc1ncc2c(n1)N(C1CCCC1)c1ccccc1C(=O)N2C [XMD17-109]	-104%	7.42 µM
CN1C(=O)c2sccc2N(C)c2nc(Nc3ccc([S+](N)(=O)[O-])cc3)ncc21 [XMU-MP-1]	-99.2%	3.32 µM
Cc1cc(C(=O)N2CCN(c3cccc(Cl)c3)CC2)n(-c2ccccc2)n1 [XRP-44X]	-62.8%	2.95 µM
C=C1C(=O)O[C@H]2C[C@H](C)C(/C=C/C(C)=O)=CC[C@H]12 [Xanthatin]	-76%	2.63 µM

From the supplement of paper PMC10290057
